Results as given in patent publication US6166290A, “Glutathione-S-conjugate transport in plants” (The Trustees of the University of Pennsylvania, priority 1997, dated 2000).
Read-outs that look alike come from different tables or passages of the source.

Key:
[1] = test system: vacuolar membrane vesicles purified from DTY167 cells (ycf1Δ mutant); assay type: biochemical, Saccharomyces cerevisiae
Outline: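 ATP-dependent [3H]DNP-GS (66.2 μM) transport measured by filtration and scintillation counting of Ficoll-purified yeast vacuolar vesicles (DTY165 wild type; DTY167 ycf1Δ), 1–60 min at 25 °C in sorbitol/Tris-Mes pH 8.0 with 3 mM ATP, 3 mM MgSO4 and gramicidin-D. Nonenergized uptake without ATP/Mg2+.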

AtMRP2 = biological target: T1, AtMRP2 (Arabidopsis thaliana, UniProt Q42093); test: AtMRP2-dependent uptake by membrane vesicles from pYES3-AtMRP2-transformed DTY168 cells; assay type: biochemical
T1 construct: S. cerevisiae DTY168 (ycf1 null) vacuolar-enriched membrane vesicles
T1 sequence (Q42093 whole entry): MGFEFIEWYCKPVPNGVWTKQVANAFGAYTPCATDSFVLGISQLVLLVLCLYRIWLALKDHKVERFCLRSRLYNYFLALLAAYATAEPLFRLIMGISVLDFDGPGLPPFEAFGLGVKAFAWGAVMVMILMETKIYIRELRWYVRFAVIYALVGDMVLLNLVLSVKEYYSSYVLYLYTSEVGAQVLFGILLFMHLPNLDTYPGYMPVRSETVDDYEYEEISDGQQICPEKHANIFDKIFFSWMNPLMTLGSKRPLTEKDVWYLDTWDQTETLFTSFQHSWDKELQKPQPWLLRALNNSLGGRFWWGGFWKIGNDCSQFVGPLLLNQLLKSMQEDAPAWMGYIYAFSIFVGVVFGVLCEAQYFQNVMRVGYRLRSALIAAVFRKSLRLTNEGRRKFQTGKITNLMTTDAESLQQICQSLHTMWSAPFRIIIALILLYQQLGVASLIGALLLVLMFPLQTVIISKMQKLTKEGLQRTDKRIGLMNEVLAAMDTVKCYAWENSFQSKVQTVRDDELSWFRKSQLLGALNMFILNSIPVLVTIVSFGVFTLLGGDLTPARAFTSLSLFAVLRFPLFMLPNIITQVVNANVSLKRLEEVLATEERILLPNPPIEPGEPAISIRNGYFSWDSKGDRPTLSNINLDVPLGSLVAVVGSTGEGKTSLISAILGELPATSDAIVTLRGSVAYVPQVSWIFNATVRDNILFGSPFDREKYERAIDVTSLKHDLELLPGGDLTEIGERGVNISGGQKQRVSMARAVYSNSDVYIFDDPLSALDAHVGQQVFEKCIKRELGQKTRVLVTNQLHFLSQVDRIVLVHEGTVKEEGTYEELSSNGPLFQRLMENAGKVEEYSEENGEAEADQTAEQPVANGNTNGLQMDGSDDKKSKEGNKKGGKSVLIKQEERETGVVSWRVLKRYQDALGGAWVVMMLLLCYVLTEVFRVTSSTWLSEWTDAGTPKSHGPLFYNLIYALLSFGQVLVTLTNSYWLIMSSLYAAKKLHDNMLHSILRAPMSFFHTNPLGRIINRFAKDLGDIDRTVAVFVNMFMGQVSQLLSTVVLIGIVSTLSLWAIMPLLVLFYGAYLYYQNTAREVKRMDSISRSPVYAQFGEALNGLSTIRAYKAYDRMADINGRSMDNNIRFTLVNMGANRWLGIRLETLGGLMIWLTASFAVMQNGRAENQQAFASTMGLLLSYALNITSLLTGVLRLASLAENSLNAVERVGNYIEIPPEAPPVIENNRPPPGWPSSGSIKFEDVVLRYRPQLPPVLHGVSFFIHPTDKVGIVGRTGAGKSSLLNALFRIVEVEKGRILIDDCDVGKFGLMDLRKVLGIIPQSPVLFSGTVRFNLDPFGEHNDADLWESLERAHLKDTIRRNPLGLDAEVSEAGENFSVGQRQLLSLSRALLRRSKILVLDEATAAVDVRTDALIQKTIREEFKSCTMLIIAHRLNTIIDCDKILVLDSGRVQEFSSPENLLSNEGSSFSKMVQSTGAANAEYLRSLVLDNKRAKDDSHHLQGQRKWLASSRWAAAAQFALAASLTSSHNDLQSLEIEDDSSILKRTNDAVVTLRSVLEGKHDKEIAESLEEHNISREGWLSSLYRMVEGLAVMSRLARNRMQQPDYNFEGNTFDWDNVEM
Protocol: Cells were grown and vacuolar membrane-enriched vesicles were prepared as described (Kim et al., 1995, J Biol. Chem. 270:2630-2635-). […] Uptake was terminated by the addition of 1 ml ice-cold wash medium (400 mM sorbitol/3 mM Tris-Mes, pH 8.0) and vacuum filtration of the suspension through prewetted Millipore HA cellulose nitrate filters (pore size 0.45 μm). The filters were rinsed twice with wash medium, and the retained radioactivity was determined by liquid scintillation counting. Nonenergized uptake was estimated by the same procedure except that ATP was omitted from the uptake medium.
Membranes from DTY168/pYES3-AtMRP2 cells were incubated for 10 minutes in standard uptake medium containing 61.3 μM [^3 H]DNP-GS after which time 200 mM glucose and 50 units/ml hexokinase (Type F-300 from baker's yeast) were added. […] Control samples were treated identically except that no additions were made after the initial 10 minute incubation period.

[2] = test system: vacuolar GS-X pump (vacuolar membrane vesicles, V. radiata hypocotyls); test: GS-conjugate uptake by vacuolar membrane vesicles from etiolated hypocotyls of V. radiata; assay type: biochemical, Vigna radiata

Structure (SMILES): N[C@@H](CCC(=O)N[C@@H](CSc1ccc([N+](=O)[O-])cc1[N+](=O)[O-])C(=O)NCC(=O)O)C(=O)O [DNP-GS, S-(2,4-dinitrophenyl)glutathione]
- initial rate of DNP-GS uptake ([1]; 3 mM MgATP, 66.2 μM DNP-GS): 1.7 nmol/mg/min
- DNP-GS uptake, control ([1]; Table 1: 66.2 μM DNP-GS, 3 mM MgATP, no addition): 15.4 ± 0.4 nmol/mg/10 minutes
- MgATP-dependent, uncoupler-insensitive DNP-GS uptake, control ([1]; Table 2: 5 μM gramicidin D, no compound): 6.5 ± 0.8 nmol/mg/10 minutes
- Vmax for AtMRP2-dependent [3H]DNP-GS uptake in the presence of Bn-NCC-1 (AtMRP2; 15 μM Bn-NCC-1): 18.3±1.6 nmol/mg/10/min
- Vmax for AtMRP2-dependent uptake (AtMRP2; MgATP-dependent, uncoupler-insensitive): 16.3±3.1 nmol/mg/10 min
- IC50 ([2]; V. radiata, read-out: I50 for uptake of C3G-GS): 104 µM
- IC50 ([2]; read-out: I50 for uptake of IAA-GS): 124 µM
- inhibition of MgATP-dependent [3H]medicarpin-GS uptake ([2]; vanadate 10 μM, DNP-GS 100 μM, gramicidin D): more than 85%
